From ChEMBL document CHEMBL1201862, “PubChem BioAssay data set” (2004)
The source made the active and inactive calls.

Legend:
[1] = molecular target: Large T antigen (Simian virus 40, UniProt P03070); assay type: functional, Betapolyomavirus macacae;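 also: Confirmatory-stage PubChem screen for compounds that inhibit SV40 T antigen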
[2] = molecular target: Dual specificity tyrosine-phosphorylation-regulated kinase 1A (Rattus norvegicus, UniProt Q63470); assay type: biochemical, Homo sapiens
[3] = molecular target: T1, Histone-lysine N-methyltransferase NSD2 (Homo sapiens, UniProt O96028); assay type: biochemical
T1 sequence (O96028 whole entry): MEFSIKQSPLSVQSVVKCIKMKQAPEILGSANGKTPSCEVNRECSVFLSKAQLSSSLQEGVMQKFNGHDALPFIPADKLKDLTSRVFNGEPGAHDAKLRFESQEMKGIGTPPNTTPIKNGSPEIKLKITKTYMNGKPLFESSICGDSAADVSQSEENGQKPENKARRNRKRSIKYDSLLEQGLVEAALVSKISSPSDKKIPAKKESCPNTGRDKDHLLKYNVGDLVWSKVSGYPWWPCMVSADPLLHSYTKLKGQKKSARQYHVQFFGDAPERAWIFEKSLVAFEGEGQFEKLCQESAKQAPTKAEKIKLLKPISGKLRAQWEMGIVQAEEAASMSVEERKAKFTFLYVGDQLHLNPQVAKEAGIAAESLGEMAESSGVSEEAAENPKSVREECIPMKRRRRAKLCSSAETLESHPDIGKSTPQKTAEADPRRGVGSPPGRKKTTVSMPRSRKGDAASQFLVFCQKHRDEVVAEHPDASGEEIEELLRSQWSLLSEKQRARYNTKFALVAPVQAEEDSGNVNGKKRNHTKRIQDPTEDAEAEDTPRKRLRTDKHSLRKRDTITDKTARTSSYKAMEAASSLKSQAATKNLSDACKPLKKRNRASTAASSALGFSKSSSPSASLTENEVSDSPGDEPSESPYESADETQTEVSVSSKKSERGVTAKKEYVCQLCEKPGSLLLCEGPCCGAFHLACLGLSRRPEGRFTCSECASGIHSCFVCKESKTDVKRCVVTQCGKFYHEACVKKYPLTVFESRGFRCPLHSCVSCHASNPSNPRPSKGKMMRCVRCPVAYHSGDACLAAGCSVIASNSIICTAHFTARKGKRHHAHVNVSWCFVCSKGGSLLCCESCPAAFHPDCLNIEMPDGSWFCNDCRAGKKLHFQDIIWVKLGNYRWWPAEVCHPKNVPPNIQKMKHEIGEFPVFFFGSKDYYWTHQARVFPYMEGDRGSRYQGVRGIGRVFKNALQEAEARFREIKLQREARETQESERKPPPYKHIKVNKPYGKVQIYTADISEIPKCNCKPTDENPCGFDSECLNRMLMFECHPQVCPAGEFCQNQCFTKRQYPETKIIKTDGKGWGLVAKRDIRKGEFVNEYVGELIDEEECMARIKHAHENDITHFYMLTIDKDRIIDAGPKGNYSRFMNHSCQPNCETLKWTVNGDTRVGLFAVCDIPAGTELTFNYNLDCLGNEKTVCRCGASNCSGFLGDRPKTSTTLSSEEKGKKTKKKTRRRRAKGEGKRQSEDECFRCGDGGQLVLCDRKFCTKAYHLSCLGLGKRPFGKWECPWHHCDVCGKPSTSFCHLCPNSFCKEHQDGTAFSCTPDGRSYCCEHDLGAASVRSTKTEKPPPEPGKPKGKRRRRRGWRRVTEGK

[4] = molecular target: T2, Caspase-6 (Homo sapiens, UniProt P55212); test: inhibition of CASP6 peptide cleavage – biochemical, VEID-R110 fluorescence, cherry-pick, dose response (AID 720632)
T2 sequence (P55212 whole entry): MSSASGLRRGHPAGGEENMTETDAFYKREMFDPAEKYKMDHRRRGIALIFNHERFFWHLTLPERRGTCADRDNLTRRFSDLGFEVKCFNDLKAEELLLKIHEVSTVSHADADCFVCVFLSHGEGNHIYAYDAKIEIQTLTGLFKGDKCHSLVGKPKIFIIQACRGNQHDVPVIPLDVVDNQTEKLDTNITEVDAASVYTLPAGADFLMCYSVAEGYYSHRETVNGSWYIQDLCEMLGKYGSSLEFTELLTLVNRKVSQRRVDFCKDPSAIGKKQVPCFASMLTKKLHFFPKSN

[5] = molecular target: Voltage-dependent T-type calcium channel subunit alpha-1H (Homo sapiens, UniProt O95180); assay type: functional;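 also: channel activity triggered by adding a high calcium stimulation buffer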
[6] = luciferase reporter signal suppression in cells – H4 neuroglioma cells, luminescence, dose response (AID 1990); assay type: functional, cell-based
[7] = Luminescence Cell-Based Dose Response HTS to Identify Inhibitors of 5'UTR Stem-Loop Driven Prion Protein mRNA Translation in H4 Neuroglioblastoma Cells. [Related pubchem assays: 1827 (Project Summary), 1813 (Primary HTS)]; assay type: functional
[8] = molecular target: Cytochrome P450 2D6 (Homo sapiens, UniProt P10635); test: qHTS Assay for Inhibitors and Substrates of Cytochrome P450 2D6. [Related pubchem assays: 410 ]; assay type: ADME; conditions: read-out: Potency
[9] = alpha-synuclein stem-loop luciferase translation blockers – H4 neuroglioma cells, luminescence, confirmation (AID 1988); assay type: functional, cell-based
[10] = viability of uninfected HEp-2 cells – cell-based, HTS, cytotoxicity control for RSV inhibitor project, dose response (AID 2410); assay type: functional; conditions: human respiratory syncytial virus
[11] = cells
[12] = general mammalian cell viability loss – inhibitor set, cherry-pick, set 2, cytotoxicity control for miR-122 modulator project, dose response (AID 720697); assay type: functional, cell-based
[13] = molecular target: Luciferin 4-monooxygenase (Photinus pyralis, UniProt P08659); test: inhibition of purified Photinus pyralis luciferase – biochemical, luminescence, dose response (AID 1891)
[14] = Luminescence Cell-Based Dose Confirmation HTS to Identify Inhibitors of Platelet Dense Granule Release. [Related pubchem assays: 1663 (Primary HTS), 1678 (Summary of Project)]; assay type: functional
[15] = molecular target: T3, Aminopeptidase N (Plasmodium falciparum FcB1/Columbia, UniProt O96935); test: malaria alanyl aminopeptidase activity blockers – biochemical, fluorogenic H-Leu-NHMec substrate, 1536-well (AID 1445); set-up: species or system Plasmodium falciparum 3D7, 3D7
T3 sequence (O96935 whole entry): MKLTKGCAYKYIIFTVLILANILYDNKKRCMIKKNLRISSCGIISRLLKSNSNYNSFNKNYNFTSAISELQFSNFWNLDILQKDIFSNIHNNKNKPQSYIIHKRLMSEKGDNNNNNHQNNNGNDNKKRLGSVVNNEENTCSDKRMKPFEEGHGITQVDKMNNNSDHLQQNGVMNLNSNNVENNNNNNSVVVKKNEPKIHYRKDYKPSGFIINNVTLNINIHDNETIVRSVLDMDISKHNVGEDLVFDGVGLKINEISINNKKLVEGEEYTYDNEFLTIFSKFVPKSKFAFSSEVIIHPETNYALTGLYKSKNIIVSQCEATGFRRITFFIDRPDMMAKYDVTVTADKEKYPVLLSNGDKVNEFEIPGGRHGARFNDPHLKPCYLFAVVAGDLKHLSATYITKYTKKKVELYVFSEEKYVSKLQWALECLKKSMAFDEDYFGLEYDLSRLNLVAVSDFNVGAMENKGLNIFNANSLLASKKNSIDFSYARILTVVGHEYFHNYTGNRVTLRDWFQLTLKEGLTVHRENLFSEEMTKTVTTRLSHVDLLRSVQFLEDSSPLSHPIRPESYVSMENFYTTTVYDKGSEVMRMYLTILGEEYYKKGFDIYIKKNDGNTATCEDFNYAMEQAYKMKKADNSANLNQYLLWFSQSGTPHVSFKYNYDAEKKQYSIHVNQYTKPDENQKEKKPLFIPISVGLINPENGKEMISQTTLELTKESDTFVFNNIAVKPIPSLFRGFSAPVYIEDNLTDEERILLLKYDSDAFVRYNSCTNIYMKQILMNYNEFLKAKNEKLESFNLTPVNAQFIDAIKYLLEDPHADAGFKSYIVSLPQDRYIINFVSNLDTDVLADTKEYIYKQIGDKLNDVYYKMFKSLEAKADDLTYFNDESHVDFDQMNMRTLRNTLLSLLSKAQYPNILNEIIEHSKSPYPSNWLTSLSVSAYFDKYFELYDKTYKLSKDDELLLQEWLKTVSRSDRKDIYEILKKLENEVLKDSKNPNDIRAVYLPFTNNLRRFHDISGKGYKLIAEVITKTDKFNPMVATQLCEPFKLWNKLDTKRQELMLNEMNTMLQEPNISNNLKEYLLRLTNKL

[16] = molecular target: T4, Leucine aminopeptidase (Plasmodium falciparum 3D7, UniProt Q8IL11); test: P. falciparum M17LAP inhibitors, primary screen, biochemical, fluorogenic H-Leu-NHMec substrate, 1536-well (AID 1619); assay type: functional
T4 sequence (Q8IL11 whole entry): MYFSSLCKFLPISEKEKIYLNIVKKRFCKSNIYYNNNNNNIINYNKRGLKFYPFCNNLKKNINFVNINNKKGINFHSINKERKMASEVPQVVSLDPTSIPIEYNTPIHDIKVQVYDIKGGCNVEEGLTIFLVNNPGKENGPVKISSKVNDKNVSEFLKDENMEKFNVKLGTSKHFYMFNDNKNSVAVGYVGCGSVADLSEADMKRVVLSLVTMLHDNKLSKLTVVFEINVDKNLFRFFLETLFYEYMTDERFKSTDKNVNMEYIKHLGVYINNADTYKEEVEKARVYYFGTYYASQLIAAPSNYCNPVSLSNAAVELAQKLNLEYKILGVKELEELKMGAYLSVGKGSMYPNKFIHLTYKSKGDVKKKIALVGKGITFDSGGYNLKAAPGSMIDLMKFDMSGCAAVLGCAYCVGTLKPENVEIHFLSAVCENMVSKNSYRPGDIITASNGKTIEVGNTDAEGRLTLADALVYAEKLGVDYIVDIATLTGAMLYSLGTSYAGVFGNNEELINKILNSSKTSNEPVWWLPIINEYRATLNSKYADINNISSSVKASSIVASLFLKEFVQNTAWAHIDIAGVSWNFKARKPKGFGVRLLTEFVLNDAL

[17] = molecular target: FAD-linked sulfhydryl oxidase ALR (Homo sapiens, UniProt P55789); test: ALR-catalysed DTT oxidation blockers – biochemical, H2O2 detection, luminescence, cherry-pick, dose response (AID 493248)
[18] = molecular target: Cytochrome P450 3A4 (Homo sapiens, UniProt P08684); conditions: Potency;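 also: confirmatory qHTS run detecting inhibitors and substrates of CYP3A4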
Chain of Cytochrome P450 3A4 (P08684 whole entry): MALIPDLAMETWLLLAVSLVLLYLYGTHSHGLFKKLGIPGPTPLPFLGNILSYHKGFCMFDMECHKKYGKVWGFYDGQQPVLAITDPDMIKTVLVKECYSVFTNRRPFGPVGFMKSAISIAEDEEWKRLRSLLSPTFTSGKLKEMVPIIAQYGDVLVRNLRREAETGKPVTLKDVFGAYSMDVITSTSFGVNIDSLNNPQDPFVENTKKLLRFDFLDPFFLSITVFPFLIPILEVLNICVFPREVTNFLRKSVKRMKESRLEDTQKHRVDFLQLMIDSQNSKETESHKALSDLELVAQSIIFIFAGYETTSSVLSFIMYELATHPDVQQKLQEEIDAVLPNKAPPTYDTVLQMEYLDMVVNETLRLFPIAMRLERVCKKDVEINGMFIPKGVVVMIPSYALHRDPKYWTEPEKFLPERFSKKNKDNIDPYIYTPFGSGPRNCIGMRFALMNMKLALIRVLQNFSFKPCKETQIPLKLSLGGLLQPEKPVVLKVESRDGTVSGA

Chain of Voltage-dependent T-type calcium channel subunit alpha-1H (O95180 whole entry): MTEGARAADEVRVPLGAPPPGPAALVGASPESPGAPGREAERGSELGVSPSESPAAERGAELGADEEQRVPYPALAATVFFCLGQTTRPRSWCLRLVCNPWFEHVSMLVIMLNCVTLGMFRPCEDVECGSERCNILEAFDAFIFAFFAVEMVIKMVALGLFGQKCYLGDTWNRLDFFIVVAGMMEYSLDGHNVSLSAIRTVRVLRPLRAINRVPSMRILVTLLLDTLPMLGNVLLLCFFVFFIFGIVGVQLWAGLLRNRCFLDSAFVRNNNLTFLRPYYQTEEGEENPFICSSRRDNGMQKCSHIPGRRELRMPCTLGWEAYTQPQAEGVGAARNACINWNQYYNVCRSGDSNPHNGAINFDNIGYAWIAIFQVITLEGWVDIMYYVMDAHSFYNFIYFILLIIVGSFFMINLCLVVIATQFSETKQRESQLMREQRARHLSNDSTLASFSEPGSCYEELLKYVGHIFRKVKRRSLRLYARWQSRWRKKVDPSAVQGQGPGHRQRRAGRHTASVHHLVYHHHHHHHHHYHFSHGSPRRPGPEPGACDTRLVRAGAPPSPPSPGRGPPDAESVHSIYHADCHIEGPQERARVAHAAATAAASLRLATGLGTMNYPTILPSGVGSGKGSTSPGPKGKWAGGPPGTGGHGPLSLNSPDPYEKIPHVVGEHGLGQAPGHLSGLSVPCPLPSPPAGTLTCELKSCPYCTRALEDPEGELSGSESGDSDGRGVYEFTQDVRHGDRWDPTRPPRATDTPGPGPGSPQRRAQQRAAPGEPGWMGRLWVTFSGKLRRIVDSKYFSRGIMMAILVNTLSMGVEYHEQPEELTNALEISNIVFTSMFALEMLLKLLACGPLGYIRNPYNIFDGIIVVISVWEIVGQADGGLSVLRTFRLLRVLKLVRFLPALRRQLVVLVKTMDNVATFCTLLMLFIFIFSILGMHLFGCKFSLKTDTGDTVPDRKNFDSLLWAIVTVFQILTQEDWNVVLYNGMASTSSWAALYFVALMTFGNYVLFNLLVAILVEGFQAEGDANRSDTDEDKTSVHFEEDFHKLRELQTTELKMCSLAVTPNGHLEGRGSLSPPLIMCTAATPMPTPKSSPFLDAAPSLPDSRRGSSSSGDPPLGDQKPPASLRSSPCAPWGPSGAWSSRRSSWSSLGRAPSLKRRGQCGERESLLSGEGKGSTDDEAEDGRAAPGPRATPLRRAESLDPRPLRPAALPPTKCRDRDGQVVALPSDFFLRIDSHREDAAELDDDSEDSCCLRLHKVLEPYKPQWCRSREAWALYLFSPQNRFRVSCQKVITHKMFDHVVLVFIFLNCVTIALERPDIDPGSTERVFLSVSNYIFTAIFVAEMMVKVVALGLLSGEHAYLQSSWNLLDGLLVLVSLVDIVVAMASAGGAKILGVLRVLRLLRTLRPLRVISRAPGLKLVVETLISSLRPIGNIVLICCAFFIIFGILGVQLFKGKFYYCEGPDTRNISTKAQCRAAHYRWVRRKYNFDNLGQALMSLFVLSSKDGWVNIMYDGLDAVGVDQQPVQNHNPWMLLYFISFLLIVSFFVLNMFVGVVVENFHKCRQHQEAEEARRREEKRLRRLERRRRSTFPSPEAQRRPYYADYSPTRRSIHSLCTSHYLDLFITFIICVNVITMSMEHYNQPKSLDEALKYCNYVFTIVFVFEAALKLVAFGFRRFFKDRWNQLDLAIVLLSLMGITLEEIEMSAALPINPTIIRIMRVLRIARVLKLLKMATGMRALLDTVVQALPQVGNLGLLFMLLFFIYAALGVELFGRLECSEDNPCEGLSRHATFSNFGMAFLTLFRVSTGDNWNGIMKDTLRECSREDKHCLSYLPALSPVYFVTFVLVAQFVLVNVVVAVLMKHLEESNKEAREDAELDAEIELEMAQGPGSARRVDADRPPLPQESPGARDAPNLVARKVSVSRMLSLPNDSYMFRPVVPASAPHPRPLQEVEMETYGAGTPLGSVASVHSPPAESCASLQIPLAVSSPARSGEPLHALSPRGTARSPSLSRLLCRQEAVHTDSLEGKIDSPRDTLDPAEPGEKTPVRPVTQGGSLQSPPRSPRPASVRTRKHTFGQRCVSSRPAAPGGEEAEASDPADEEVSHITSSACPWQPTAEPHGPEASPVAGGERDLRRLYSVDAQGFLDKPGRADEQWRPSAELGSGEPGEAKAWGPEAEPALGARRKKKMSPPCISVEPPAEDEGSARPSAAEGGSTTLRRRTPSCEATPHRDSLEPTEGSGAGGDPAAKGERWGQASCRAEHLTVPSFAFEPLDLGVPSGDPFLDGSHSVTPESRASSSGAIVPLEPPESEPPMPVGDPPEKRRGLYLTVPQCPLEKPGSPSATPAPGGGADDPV
Chain of Cytochrome P450 2D6 (P10635 whole entry): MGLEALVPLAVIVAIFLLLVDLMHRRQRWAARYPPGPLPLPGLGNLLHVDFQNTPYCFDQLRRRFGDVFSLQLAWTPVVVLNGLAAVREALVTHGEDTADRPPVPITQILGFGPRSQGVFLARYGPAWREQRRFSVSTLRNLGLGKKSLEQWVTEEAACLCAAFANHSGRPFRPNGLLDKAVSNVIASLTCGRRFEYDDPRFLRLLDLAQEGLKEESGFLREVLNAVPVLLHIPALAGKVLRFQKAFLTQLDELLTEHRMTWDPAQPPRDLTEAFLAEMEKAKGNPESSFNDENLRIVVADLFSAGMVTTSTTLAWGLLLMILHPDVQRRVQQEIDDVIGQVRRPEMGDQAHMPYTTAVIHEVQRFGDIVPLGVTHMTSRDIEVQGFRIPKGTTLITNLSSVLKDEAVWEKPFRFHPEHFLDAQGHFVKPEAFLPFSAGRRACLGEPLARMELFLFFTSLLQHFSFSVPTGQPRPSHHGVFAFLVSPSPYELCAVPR
Chain of Luciferin 4-monooxygenase (P08659 whole entry): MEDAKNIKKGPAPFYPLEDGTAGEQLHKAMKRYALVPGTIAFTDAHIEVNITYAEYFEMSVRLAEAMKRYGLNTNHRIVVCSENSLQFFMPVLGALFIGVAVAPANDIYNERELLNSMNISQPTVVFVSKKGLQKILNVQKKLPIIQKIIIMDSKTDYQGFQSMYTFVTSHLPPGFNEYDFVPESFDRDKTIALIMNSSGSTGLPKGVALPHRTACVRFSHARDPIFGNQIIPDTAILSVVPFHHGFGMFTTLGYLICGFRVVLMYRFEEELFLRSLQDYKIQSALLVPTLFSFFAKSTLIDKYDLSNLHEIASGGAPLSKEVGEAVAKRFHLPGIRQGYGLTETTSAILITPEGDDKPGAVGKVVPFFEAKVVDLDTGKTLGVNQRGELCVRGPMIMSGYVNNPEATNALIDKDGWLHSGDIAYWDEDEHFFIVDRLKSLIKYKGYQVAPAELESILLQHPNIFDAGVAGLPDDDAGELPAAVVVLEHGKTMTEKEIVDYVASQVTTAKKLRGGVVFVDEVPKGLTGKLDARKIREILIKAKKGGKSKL
Chain of Large T antigen (P03070 whole entry): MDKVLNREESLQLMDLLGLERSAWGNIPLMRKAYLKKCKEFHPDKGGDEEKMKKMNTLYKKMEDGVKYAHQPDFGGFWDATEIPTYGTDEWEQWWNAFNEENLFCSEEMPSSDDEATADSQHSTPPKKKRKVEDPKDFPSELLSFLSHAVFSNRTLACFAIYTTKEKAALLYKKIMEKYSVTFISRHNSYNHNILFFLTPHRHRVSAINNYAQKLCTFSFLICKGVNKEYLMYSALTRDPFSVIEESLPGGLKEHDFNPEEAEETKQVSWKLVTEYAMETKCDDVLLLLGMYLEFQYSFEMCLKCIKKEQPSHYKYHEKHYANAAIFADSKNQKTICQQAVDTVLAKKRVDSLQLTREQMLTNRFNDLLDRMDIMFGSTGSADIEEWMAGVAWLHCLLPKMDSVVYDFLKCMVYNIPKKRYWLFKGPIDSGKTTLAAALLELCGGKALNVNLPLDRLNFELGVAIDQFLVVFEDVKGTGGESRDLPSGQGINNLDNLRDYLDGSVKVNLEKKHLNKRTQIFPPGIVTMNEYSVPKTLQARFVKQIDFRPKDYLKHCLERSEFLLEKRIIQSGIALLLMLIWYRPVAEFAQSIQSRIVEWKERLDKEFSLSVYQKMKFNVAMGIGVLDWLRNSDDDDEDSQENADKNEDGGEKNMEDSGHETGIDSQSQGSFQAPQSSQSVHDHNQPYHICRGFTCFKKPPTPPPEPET
Chain of FAD-linked sulfhydryl oxidase ALR (P55789 whole entry): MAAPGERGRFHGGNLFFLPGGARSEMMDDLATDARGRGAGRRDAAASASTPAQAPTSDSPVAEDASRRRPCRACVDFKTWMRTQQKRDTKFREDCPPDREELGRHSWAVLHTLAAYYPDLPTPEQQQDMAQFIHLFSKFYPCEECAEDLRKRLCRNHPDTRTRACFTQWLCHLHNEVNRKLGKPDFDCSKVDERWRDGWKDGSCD

## N#C/C(=C/c1ccc(O)c(O)c1)c1nc2ccccc2[nH]1
[1]
  IC50: 12.3 µM (active)
[2]
  AC50: 2.06 µM (active)
[3]
  AC50: 2.05 µM (active)

## O=C(O)CCN1CC2([N+](=O)[O-])C=CC(=O)C([N+](=O)[O-])(C1)C2CC(=O)c1ccccc1 (stereo not given)
[4]
  AC50: 15.7 µM (active)

## O=C(Nc1ccccc1Cl)c1cc(S(=O)(=O)N2CCCCC2)ccc1N1CCOCC1
[5]
  EC50: 5.14 µM (active)

## Cc1c(O)c(=O)ccn1Cc1ccccc1
[6]
  EC50: 11.3 µM (active)
[7]
  EC50: 3.71 µM (active)
[8]
  AC50: 3.16 µM (inconclusive)
[9]
  EC50: > 120 µM (not active)

## CCn1cc(C(=O)NCc2cccc(F)c2)c(=O)c2cc(F)c(N3CCN(C(=O)c4ccco4)CC3)cc21
[10]
  CC50: > 50 µM (active)
[11]
  IC50: 48.9 µM (active)

## COC(=O)c1cc(NS(=O)(=O)c2ccc3c(c2)CCC(=O)N3)cc(C(=O)OC)c1
[12]
  AC50: 3.3 µM (active)

## COc1cc(OC)c(NC(=O)CS(=O)(=O)Cc2nc(-c3ccc(C)cc3)oc2C)cc1Cl
[5]
  EC50: 5.56 µM (active)

## O=c1cc(-c2ccc(O)c(O)c2)oc2c(C3O[C@H](CO)[C@@H](O)[C@H](O)[C@H]3O)c(O)cc(O)c12 (stereo not given in full)
[1]
  IC50: 3.15 µM (active)
[11]
  IC50: 18 µM (active)

## CCn1c(C(=O)N2CCC(C(=O)NCCCSC3CCCCC3)CC2)cc2sccc21
[13]
  EC50: 25 µM (active)
[14]
  EC50: > 112 µM (not active)
[5]
  EC50: 3.51 µM (active)

## COc1ccc(OC)c(CNC(=O)c2coc(=O)c3ccccc23)c1
[10]
  CC50: 37.8 µM (active)
[13]
  EC50: > 112 µM (not active)
[14]
  EC50: 19.5 µM (active)
[11]
  IC50: 29.3 µM (active)

## Cc1cc(C)cc(-n2nnc(C(=O)NCc3ccc4c(c3)OCO4)c2N)c1
[5]
  EC50: 2.39 µM (active)

## CCOC(=O)CC1C(=O)NCCN1c1nc2ccc(C)cn2c(=O)c1/C=C1\SC(=S)N(C(C)CC)C1=O (stereo not given)
[10]
  CC50: 13.3 µM (active)
[15]
  IC50: 49.8 µM (active)

## CCOc1cc(/C=C(/C#N)c2nc3ccccc3[nH]2)ccc1OCc1ccc(C(=O)O)o1
[16]
  IC50: 9.14 µM (active)
[15]
  IC50: 60.8 µM (active)

## OCC1(CCOc2ccccc2)CCN(Cc2cccn2-c2ncccn2)CC1
[10]
  CC50: > 50 µM (active)
[11]
  IC50: 17.9 µM (active)

## Cc1ccc2[nH]c(-c3cccc(N)c3)cc2c1
[10]
  CC50: > 50 µM (active)
[17]
  AC50: 13.2 µM (active)
[11]
  IC50: 41.4 µM (active)

## O=c1c(O)c(-c2cccc(O)c2)oc2ccccc12
[8]
  AC50: 25.1 µM (inconclusive)

## Cc1nc2ccccn2c(=O)c1CCN1CCC(C(=O)c2ccc(F)cc2)CC1 [PIRENPERONE]
[8]
  AC50: 7.94 µM (inconclusive)
[18]
  AC50: 20 µM (inconclusive)
